Test results as given in ChEMBL document CHEMBL1201862, “PubChem BioAssay data set” (2004).
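Cultured in 96-well plates, cells were exposed to test compound for 48 hours across five concentrations. At the GI50, growth is halved.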 Activity calls are given as the source filed them. No stated cut-off is given here; in the data, active = GI50 up to about 1.1 µM and inactive = higher.

Experiments:
Assay in all cases: DTP human tumour cell line panel, 48 h
DMS-114 = tested on: DMS-114
A498 = tested on: A498
KM-20L2 = tested on: KM-20L2
UACC-257 = tested on: UACC-257
DLD-1 = tested on: DLD-1
MOLT-4 = tested on: MOLT-4
OVCAR-5 = tested on: OVCAR-5
OVCAR-3 = tested on: OVCAR-3
HOP-92 = tested on: HOP-92
COLO 205 = tested on: COLO 205
OVCAR-8 = tested on: OVCAR-8
HT-29 = tested on: HT-29
NCI-H522 = tested on: NCI-H522
OVCAR-4 = tested on: OVCAR-4
TK-10 = tested on: TK-10
LXFL 529 = tested on: LXFL 529
HCC 2998 = tested on: HCC 2998
XF498 = tested on: XF498
DMS-273 = tested on: DMS-273
SK-MEL-5 = tested on: SK-MEL-5
HOP-18 = tested on: HOP-18
K562 = tested on: K562
SNB-78 = tested on: SNB-78
Malme-3M = tested on: Malme-3M
NCI-H460 = tested on: NCI-H460
M19-MEL = tested on: M19-MEL
IGROV-1 = tested on: IGROV-1
RPMI-8226 = tested on: RPMI-8226
HL-60 = tested on: HL-60
A549 = tested on: A549
SNB-19 = tested on: SNB-19
HOP-62 = tested on: HOP-62
ACHN = tested on: ACHN
786-0 = tested on: 786-0
SN12C = tested on: SN12C
UACC-62 = tested on: UACC-62
SF-268 = tested on: SF-268
HCT-116 = tested on: HCT-116
RXF 631 = tested on: RXF 631
NCI-H226 = tested on: NCI-H226
M14 = tested on: M14
SK-MEL-28 = tested on: SK-MEL-28
CAKI-1 = tested on: CAKI-1
EKVX = tested on: EKVX
RXF 393 = tested on: RXF 393
U-251 = tested on: U-251
SNB-75 = tested on: SNB-75
NCI-H23 = tested on: NCI-H23
SW-620 = tested on: SW-620
SF-295 = tested on: SF-295
UO-31 = tested on: UO-31
SF-539 = tested on: SF-539
KM12 = tested on: KM12
SK-MEL-2 = tested on: SK-MEL-2
HCT-15 = tested on: HCT-15
CCRF-CEM = tested on: CCRF-CEM
SK-OV-3 = tested on: SK-OV-3
LOX IMVI = tested on: LOX IMVI
SR = tested on: SR
MDA-MB-231 = tested on: MDA-MB-231
BT-549 = tested on: BT-549
T47D = tested on: T47D
MCF7 = tested on: MCF7
MDA-N = tested on: MDA-N
Hs-578T = tested on: Hs-578T
MDA-MB-435 = tested on: MDA-MB-435
DU-145 = tested on: DU-145
PC-3 = tested on: PC-3

## CCCCCC1CC=CC(NC(=O)OCc2ccccc2)C1/C=C/CCCC1OCCO1 (stereo not given)
DMS-114
  GI50: 21.4 µM (inactive)
A498
  GI50: 17.7 µM (inactive)
KM-20L2
  GI50: > 100 µM (inactive)
UACC-257
  GI50: 50.7 µM (inactive)
DLD-1
  GI50: > 66.5 µM (inactive)
MOLT-4
  GI50: 12.5 µM (inactive)
OVCAR-5
  GI50: > 53.8 µM (inactive)
OVCAR-3
  GI50: 38.5 µM (inactive)
HOP-92
  GI50: > 45.7 µM (inactive)
COLO 205
  GI50: 44.2 µM (inactive)
OVCAR-8
  GI50: 73.6 µM (inactive)
HT-29
  GI50: > 100 µM (inactive)
NCI-H522
  GI50: 20.8 µM (inactive)
OVCAR-4
  GI50: > 72.9 µM (inactive)
TK-10
  GI50: 97.7 µM (inactive)
LXFL 529
  GI50: 40.6 µM (inactive)
HCC 2998
  GI50: 78.3 µM (inactive)
XF498
  GI50: 52 µM (inactive)
DMS-273
  GI50: 36.2 µM (inactive)
SK-MEL-5
  GI50: 17.9 µM (inactive)
HOP-18
  GI50: > 100 µM (inactive)
K562
  GI50: 24.9 µM (inactive)
SNB-78
  GI50: > 100 µM (inactive)
Malme-3M
  GI50: 50.6 µM (inactive)
NCI-H460
  GI50: 51.6 µM (inactive)
M19-MEL
  GI50: > 91.4 µM (inactive)
IGROV-1
  GI50: > 100 µM (inactive)
RPMI-8226
  GI50: 17.9 µM (inactive)
HL-60
  GI50: 7.93 µM (inactive)
A549
  GI50: 23.3 µM (inactive)
SNB-19
  GI50: 74.1 µM (inactive)
HOP-62
  GI50: > 100 µM (inactive)
ACHN
  GI50: 24.1 µM (inactive)
786-0
  GI50: > 100 µM (inactive)
SN12C
  GI50: > 100 µM (inactive)
UACC-62
  GI50: > 93.5 µM (inactive)
SF-268
  GI50: > 42.8 µM (inactive)
HCT-116
  GI50: 35.8 µM (inactive)
RXF 631
  GI50: 48.3 µM (inactive)
NCI-H226
  GI50: 30.9 µM (inactive)
M14
  GI50: > 100 µM (inactive)
SK-MEL-28
  GI50: > 36.5 µM (inactive)
CAKI-1
  GI50: 23.5 µM (inactive)
EKVX
  GI50: 96.6 µM (inactive)
RXF 393
  GI50: 15.1 µM (inactive)
U-251
  GI50: 73.5 µM (inactive)
SNB-75
  GI50: > 56 µM (inactive)
NCI-H23
  GI50: 44.7 µM (inactive)
SW-620
  GI50: > 100 µM (inactive)
SF-295
  GI50: 66.5 µM (inactive)
UO-31
  GI50: 13.1 µM (inactive)
SF-539
  GI50: > 100 µM (inactive)
KM12
  GI50: 48 µM (inactive)
SK-MEL-2
  GI50: 35.2 µM (inactive)
HCT-15
  GI50: 86.7 µM
CCRF-CEM
  GI50: 47.5 µM (inactive)
SK-OV-3
  GI50: > 100 µM (inactive)
LOX IMVI
  GI50: 57.7 µM (inactive)

## C=CC/C=C/C/C=C/CCCCCCCc1cccc(O)c1C(=O)O
DMS-114
  GI50: > 100 µM (inactive)
KM-20L2
  GI50: 86.1 µM (inactive)
SR
  GI50: > 100 µM (inactive)
UACC-257
  GI50: 73.3 µM (inactive)
DLD-1
  GI50: 35 µM (inactive)
MOLT-4
  GI50: 42.8 µM (inactive)
OVCAR-5
  GI50: > 100 µM (inactive)
OVCAR-3
  GI50: 35.4 µM (inactive)
HOP-92
  GI50: 23.7 µM (inactive)
COLO 205
  GI50: > 100 µM (inactive)
OVCAR-8
  GI50: > 100 µM (inactive)
HT-29
  GI50: 48.8 µM (inactive)
NCI-H522
  GI50: 39.5 µM (inactive)
OVCAR-4
  GI50: 42.2 µM (inactive)
TK-10
  GI50: 54.7 µM (inactive)
LXFL 529
  GI50: 36.1 µM (inactive)
HCC 2998
  GI50: 58.7 µM (inactive)
XF498
  GI50: > 100 µM (inactive)
DMS-273
  GI50: 45.4 µM (inactive)
HOP-18
  GI50: 17.3 µM (inactive)
K562
  GI50: 33.3 µM (inactive)
SNB-78
  GI50: > 100 µM (inactive)
Malme-3M
  GI50: 47.6 µM (inactive)
NCI-H460
  GI50: 36.1 µM (inactive)
M19-MEL
  GI50: 43.9 µM (inactive)
IGROV-1
  GI50: 33.6 µM (inactive)
RPMI-8226
  GI50: 40.2 µM (inactive)
HL-60
  GI50: > 100 µM (inactive)
A549
  GI50: 33 µM (inactive)
SNB-19
  GI50: 34.9 µM (inactive)
HOP-62
  GI50: 14.4 µM (inactive)
ACHN
  GI50: 44.2 µM (inactive)
786-0
  GI50: > 100 µM (inactive)
UACC-62
  GI50: 31.1 µM (inactive)
SF-268
  GI50: 24.3 µM (inactive)
HCT-116
  GI50: > 100 µM (inactive)
RXF 631
  GI50: > 100 µM (inactive)
M14
  GI50: 82.8 µM (inactive)
SK-MEL-28
  GI50: 32.7 µM (inactive)
CAKI-1
  GI50: 32.1 µM (inactive)
EKVX
  GI50: 49 µM (inactive)
U-251
  GI50: 19.7 µM (inactive)
SNB-75
  GI50: 43.4 µM (inactive)
NCI-H23
  GI50: 29.6 µM (inactive)
SW-620
  GI50: 45.9 µM (inactive)
SF-295
  GI50: > 100 µM (inactive)
UO-31
  GI50: 25.2 µM (inactive)
SF-539
  GI50: 69.5 µM (inactive)
KM12
  GI50: 64 µM (inactive)
SK-MEL-2
  GI50: 49 µM (inactive)
HCT-15
  GI50: 48 µM
CCRF-CEM
  GI50: 30.3 µM (inactive)
SK-OV-3
  GI50: 25.2 µM (inactive)
LOX IMVI
  GI50: 44.7 µM (inactive)

## O=C(O)/C(Cl)=C(/Cl)C(=O)Nc1cccc(Cl)c1
DMS-114
  GI50: 16.6 µM (inactive)
MDA-MB-231
  GI50: 14.6 µM (inactive)
A498
  GI50: > 64.1 µM (inactive)
BT-549
  GI50: 19.4 µM (inactive)
KM-20L2
  GI50: 19.7 µM (inactive)
SR
  GI50: 8.24 µM (inactive)
T47D
  GI50: 22 µM (inactive)
UACC-257
  GI50: 18 µM (inactive)
DLD-1
  GI50: 15.6 µM (inactive)
MOLT-4
  GI50: 4.28 µM (inactive)
OVCAR-5
  GI50: 19.7 µM (inactive)
OVCAR-3
  GI50: 16.7 µM (inactive)
MCF7
  GI50: 24.8 µM (inactive)
HOP-92
  GI50: 14.6 µM (inactive)
COLO 205
  GI50: 10.2 µM (inactive)
OVCAR-8
  GI50: 18.7 µM (inactive)
HT-29
  GI50: 20 µM (inactive)
NCI-H522
  GI50: 4.35 µM (inactive)
OVCAR-4
  GI50: 18.2 µM (inactive)
TK-10
  GI50: 18.1 µM (inactive)
LXFL 529
  GI50: 15.4 µM (inactive)
HCC 2998
  GI50: 17.5 µM (inactive)
XF498
  GI50: 18.1 µM (inactive)
DMS-273
  GI50: 12.9 µM (inactive)
SK-MEL-5
  GI50: 19 µM (inactive)
HOP-18
  GI50: 20.4 µM (inactive)
K562
  GI50: 6.43 µM (inactive)
MDA-N
  GI50: 17.3 µM (inactive)
SNB-78
  GI50: 25.2 µM (inactive)
Malme-3M
  GI50: 16.9 µM (inactive)
NCI-H460
  GI50: > 87.9 µM (inactive)
M19-MEL
  GI50: 15.6 µM (inactive)
IGROV-1
  GI50: 18.8 µM (inactive)
RPMI-8226
  GI50: 12.1 µM (inactive)
Hs-578T
  GI50: 24.8 µM (inactive)
HL-60
  GI50: 8.91 µM (inactive)
A549
  GI50: 48.1 µM (inactive)
SNB-19
  GI50: 31.7 µM (inactive)
HOP-62
  GI50: > 59.4 µM (inactive)
ACHN
  GI50: 18.5 µM (inactive)
786-0
  GI50: 16.9 µM (inactive)
SN12C
  GI50: 20 µM (inactive)
UACC-62
  GI50: 16.8 µM (inactive)
SF-268
  GI50: 22.4 µM (inactive)
HCT-116
  GI50: 16.2 µM (inactive)
RXF 631
  GI50: 22 µM (inactive)
NCI-H226
  GI50: 24.8 µM (inactive)
M14
  GI50: 18.6 µM (inactive)
SK-MEL-28
  GI50: 17.9 µM (inactive)
CAKI-1
  GI50: 7.33 µM (inactive)
EKVX
  GI50: 17.9 µM (inactive)
RXF 393
  GI50: 16.4 µM (inactive)
U-251
  GI50: 28 µM (inactive)
SNB-75
  GI50: 17.9 µM (inactive)
MDA-MB-435
  GI50: 19.2 µM (inactive)
NCI-H23
  GI50: 15.9 µM (inactive)
SW-620
  GI50: 12.6 µM (inactive)
SF-295
  GI50: 30.5 µM (inactive)
UO-31
  GI50: 18.5 µM (inactive)
DU-145
  GI50: > 100 µM (inactive)
PC-3
  GI50: 18.5 µM (inactive)
SF-539
  GI50: 17.6 µM (inactive)
KM12
  GI50: 20.8 µM (inactive)
SK-MEL-2
  GI50: 20.8 µM (inactive)
HCT-15
  GI50: 16.6 µM
CCRF-CEM
  GI50: 5.87 µM (inactive)
SK-OV-3
  GI50: 15.7 µM (inactive)
LOX IMVI
  GI50: 13.8 µM (inactive)
